Assay results as given in ChEMBL document CHEMBL1671689, “Activity of ceftaroline against recent emerging serotypes of Streptococcus pneumoniae in the United States” (2010).
Converted amounts (≈) assume the structure as drawn.

Key:
Assay type in all cases: functional
Streptococcus pneumoniae [1] = test: Antimicrobial activity against Streptococcus pneumoniae serotype 19A by broth microdilution method
Streptococcus pneumoniae [2] = test: Antimicrobial activity against Streptococcus pneumoniae serotype 35B by broth microdilution method
Streptococcus pneumoniae [3] = test: Antimicrobial activity against Streptococcus pneumoniae serotype 19F assessed as percent susceptible isolates by broth microdilution method
Streptococcus pneumoniae [4] = test: Antimicrobial activity against Streptococcus pneumoniae serotype 6C by broth microdilution method
Streptococcus pneumoniae [5] = test: Antimicrobial activity against multiple drug resistant Streptococcus pneumoniae serotype 19A by broth microdilution method
Streptococcus pneumoniae [6] = test: Antimicrobial activity against multiple drug resistant Streptococcus pneumoniae serotype 19F by broth microdilution method
Streptococcus pneumoniae [7] = test: Antimicrobial activity against Streptococcus pneumoniae serotype 22F assessed as percent susceptible isolates by broth microdilution method
Streptococcus pneumoniae [8] = test: Antimicrobial activity against multiple drug resistant Streptococcus pneumoniae serotype 19A assessed as percent susceptible isolates by broth microdilution method
Streptococcus pneumoniae [9] = test: Antimicrobial activity against Streptococcus pneumoniae serotype 23A assessed as percent susceptible isolates by broth microdilution method
Streptococcus pneumoniae [10] = test: Antimicrobial activity against Streptococcus pneumoniae serotype 19A assessed as percent susceptible isolates by broth microdilution method
Streptococcus pneumoniae [11] = test: Antimicrobial activity against multiple drug resistant Streptococcus pneumoniae serotype 19F assessed as percent susceptible isolates by broth microdilution method
Streptococcus pneumoniae [12] = test: Antimicrobial activity against Streptococcus pneumoniae serotype 6C assessed as percent susceptible isolates by broth microdilution method
Streptococcus pneumoniae [13] = test: Antimicrobial activity against Streptococcus pneumoniae serotype 11A by broth microdilution method
Streptococcus pneumoniae [14] = test: Antimicrobial activity against multiple drug resistant Streptococcus pneumoniae serotype 6B assessed as percent susceptible isolates by broth microdilution method
Streptococcus pneumoniae [15] = test: Antimicrobial activity against Streptococcus pneumoniae serotype 35B assessed as percent susceptible isolates by broth microdilution method
Streptococcus pneumoniae [16] = test: Antimicrobial activity against multiple drug resistant Streptococcus pneumoniae serotype 6B by broth microdilution method
Streptococcus pneumoniae [17] = test: Antimicrobial activity against Streptococcus pneumoniae serotype 7F by broth microdilution method
Streptococcus pneumoniae [18] = test: Antimicrobial activity against Streptococcus pneumoniae serotype 7F assessed as percent susceptible isolates by broth microdilution method
Streptococcus pneumoniae [19] = test: Antimicrobial activity against Streptococcus pneumoniae serotype 3 assessed as percent susceptible isolates by broth microdilution method
Streptococcus pneumoniae [20] = test: Antimicrobial activity against Streptococcus pneumoniae serotype 11A assessed as percent susceptible isolates by broth microdilution method
Streptococcus pneumoniae [21] = test: Antimicrobial activity against Streptococcus pneumoniae serotype 23B assessed as percent susceptible isolates by broth microdilution method
Streptococcus pneumoniae [22] = test: Antimicrobial activity against Streptococcus pneumoniae serotype 3 by broth microdilution method
Streptococcus pneumoniae [23] = test: Antimicrobial activity against Streptococcus pneumoniae serotype 15A assessed as percent susceptible isolates by broth microdilution method

Row | Compound | MIC50 (Streptococcus pneumoniae [1]) [µg/mL] | MIC90 (Streptococcus pneumoniae [1]) [µg/mL] | MIC50 (Streptococcus pneumoniae [2]) [µg/mL] | MIC90 (Streptococcus pneumoniae [2]) [µg/mL] | Activity (Streptococcus pneumoniae [3]) [%] | MIC50 (Streptococcus pneumoniae [4]) [µg/mL] | MIC90 (Streptococcus pneumoniae [4]) [µg/mL] | MIC50 (Streptococcus pneumoniae [5]) [µg/mL] | MIC90 (Streptococcus pneumoniae [5]) [µg/mL] | MIC50 (Streptococcus pneumoniae [6]) [µg/mL] | MIC90 (Streptococcus pneumoniae [6]) [µg/mL] | Activity (Streptococcus pneumoniae [7]) [%] | Activity (Streptococcus pneumoniae [8]) [%] | Activity (Streptococcus pneumoniae [9]) [%] | Activity (Streptococcus pneumoniae [10]) [%] | Activity (Streptococcus pneumoniae [11]) [%] | Activity (Streptococcus pneumoniae [12]) [%] | MIC50 (Streptococcus pneumoniae [13]) [µg/mL] | MIC90 (Streptococcus pneumoniae [13]) [µg/mL] | Activity (Streptococcus pneumoniae [14]) [%] | other results
1 | CC[C@H]1OC(=O)[C@H](C)[C@@H](O[C@H]2C[C@@](C)(OC)[C@@H](O)[C@H](C)O2)[C@H](C)[C@@H](O[C@@H]2O[C@H](C)C[C@H](N(C)C)[C@H]2O)[C@](C)(O)C[C@@H](C)C(=O)[C@H](C)[C@@H](O)[C@]1(C)O [ERYTHROMYCIN] | > 2 | > 2 | ≤ 0.25 | > 2 | 17.2 | > 2 | > 2 | > 8 | > 8 | > 8 | > 8 | 88.6 | 0 | 78.8 | 26.5 | 0 | 41.9 | ≤ 0.25 | > 2 | 0 | MIC (Streptococcus pneumoniae [5]): > 8 µg/mL; MIC (Streptococcus pneumoniae [6]): > 8 µg/mL; Activity (Streptococcus pneumoniae [15]): 64.4%; MIC (Streptococcus pneumoniae [16]): > 8 µg/mL; MIC50 (Streptococcus pneumoniae [16]): > 8 µg/mL; MIC90 (Streptococcus pneumoniae [16]): > 8 µg/mL; MIC (Streptococcus pneumoniae [17]): ≤ 0.25 µg/mL; MIC50 (Streptococcus pneumoniae [17]): ≤ 0.25 µg/mL; MIC90 (Streptococcus pneumoniae [17]): ≤ 0.25 µg/mL; Activity (Streptococcus pneumoniae [18]): 64.4%; Activity (Streptococcus pneumoniae [19]): 95.1%; Activity (Streptococcus pneumoniae [20]): 75.5%; Activity (Streptococcus pneumoniae [21]): 75.8%; MIC50 (Streptococcus pneumoniae [22]): ≤ 0.25 µg/mL; MIC90 (Streptococcus pneumoniae [22]): ≤ 0.25 µg/mL; Activity (Streptococcus pneumoniae [23]): 5.3%
2 | C[C@@H](O)[C@H]1C(=O)N2C(C(=O)O)=C(SCCNC=N)C[C@H]12 [IMIPENEM ANHYDROUS] | 0.5 (≈ 1.67 µM) | 1 (≈ 3.34 µM) | 0.25 (≈ 0.835 µM) | 0.5 (≈ 1.67 µM) | 20.7 | ≤ 0.12 | ≤ 0.12 | 1 (≈ 3.34 µM) | 1 (≈ 3.34 µM) | 1 (≈ 3.34 µM) | 1 (≈ 3.34 µM) | 100 | 0.8 | 100 | 40.2 | 0.8 | 90.7 | ≤ 0.12 | ≤ 0.12 | 0.8 | MIC (Streptococcus pneumoniae [4]): ≤ 0.12 µg/mL; MIC (Streptococcus pneumoniae [13]): ≤ 0.12 µg/mL; Activity (Streptococcus pneumoniae [15]): 15.3%; MIC50 (Streptococcus pneumoniae [16]): 1 µg/mL (≈ 3.34 µM); MIC90 (Streptococcus pneumoniae [16]): 1 µg/mL (≈ 3.34 µM); MIC (Streptococcus pneumoniae [17]): ≤ 0.12 µg/mL; MIC50 (Streptococcus pneumoniae [17]): ≤ 0.12 µg/mL; MIC90 (Streptococcus pneumoniae [17]): ≤ 0.12 µg/mL; Activity (Streptococcus pneumoniae [18]): 15.3%; Activity (Streptococcus pneumoniae [19]): 100%; Activity (Streptococcus pneumoniae [20]): 95.9%; Activity (Streptococcus pneumoniae [21]): 100%; MIC (Streptococcus pneumoniae [22]): ≤ 0.12 µg/mL; MIC50 (Streptococcus pneumoniae [22]): ≤ 0.12 µg/mL; MIC90 (Streptococcus pneumoniae [22]): ≤ 0.12 µg/mL; Activity (Streptococcus pneumoniae [23]): 100%
3 | C[C@H]1COc2c(N3CCN(C)CC3)c(F)cc3c(=O)c(C(=O)O)cn1c23.C[C@H]1COc2c(N3CCN(C)CC3)c(F)cc3c(=O)c(C(=O)O)cn1c23.O [LEVOFLOXACIN] | 1 | 1 | 1 | 1 | 96.6 | 1 | 1 | 1 | 1 | 1 | 1 | 100 | 99.2 | 100 | 100 | 99.2 | 100 | 1 | 2 | 99.2 | Activity (Streptococcus pneumoniae [15]): 98.3%; MIC50 (Streptococcus pneumoniae [16]): 1 µg/mL; MIC90 (Streptococcus pneumoniae [16]): 1 µg/mL; MIC50 (Streptococcus pneumoniae [17]): 1 µg/mL; MIC90 (Streptococcus pneumoniae [17]): 1 µg/mL; Activity (Streptococcus pneumoniae [18]): 98.3%; Activity (Streptococcus pneumoniae [19]): 100%; Activity (Streptococcus pneumoniae [20]): 100%; Activity (Streptococcus pneumoniae [21]): 97%; MIC50 (Streptococcus pneumoniae [22]): 1 µg/mL; MIC90 (Streptococcus pneumoniae [22]): 1 µg/mL; Activity (Streptococcus pneumoniae [23]): 100%
4 | CC1(C)S[C@@H]2[C@H](NC(=O)Cc3ccccc3)C(=O)N2[C@H]1C(=O)O [PENICILLIN G] | 4 (≈ 12 µM) | 4 (≈ 12 µM) | 2 (≈ 5.98 µM) | 2 (≈ 5.98 µM) | 37.9 | 0.5 (≈ 1.5 µM) | 1 (≈ 2.99 µM) | 4 (≈ 12 µM) | 4 (≈ 12 µM) | 4 (≈ 12 µM) | 4 (≈ 12 µM) | 100 | 11.4 | 100 | 46.6 | 11.4 | 100 | ≤ 0.03 | ≤ 0.03 | 11.4 | MIC (Streptococcus pneumoniae [13]): ≤ 0.03 µg/mL; Activity (Streptococcus pneumoniae [15]): 98.3%; MIC50 (Streptococcus pneumoniae [16]): 4 µg/mL (≈ 12 µM); MIC90 (Streptococcus pneumoniae [16]): 4 µg/mL (≈ 12 µM); MIC (Streptococcus pneumoniae [17]): ≤ 0.03 µg/mL; MIC50 (Streptococcus pneumoniae [17]): ≤ 0.03 µg/mL; MIC90 (Streptococcus pneumoniae [17]): ≤ 0.03 µg/mL; Activity (Streptococcus pneumoniae [18]): 98.3%; Activity (Streptococcus pneumoniae [19]): 100%; Activity (Streptococcus pneumoniae [20]): 100%; Activity (Streptococcus pneumoniae [21]): 100%; MIC (Streptococcus pneumoniae [22]): ≤ 0.03 µg/mL; MIC50 (Streptococcus pneumoniae [22]): ≤ 0.03 µg/mL; MIC90 (Streptococcus pneumoniae [22]): ≤ 0.03 µg/mL; Activity (Streptococcus pneumoniae [23]): 100%
5 | CC1(C)S[C@@H]2[C@H](NC(=O)COc3ccccc3)C(=O)N2[C@H]1C(=O)O [PENICILLIN V] | 4 (≈ 11.4 µM) | 4 (≈ 11.4 µM) | 2 (≈ 5.71 µM) | 2 (≈ 5.71 µM) | 20.7 | 0.5 (≈ 1.43 µM) | 1 (≈ 2.85 µM) | 4 (≈ 11.4 µM) | 4 (≈ 11.4 µM) | 4 (≈ 11.4 µM) | 4 (≈ 11.4 µM) | 100 | 0 | 36.4 | 13.8 | 0 | 37.2 | ≤ 0.03 | ≤ 0.03 | 0 | MIC (Streptococcus pneumoniae [13]): ≤ 0.03 µg/mL; Activity (Streptococcus pneumoniae [15]): 10.2%; MIC50 (Streptococcus pneumoniae [16]): 4 µg/mL (≈ 11.4 µM); MIC90 (Streptococcus pneumoniae [16]): 4 µg/mL (≈ 11.4 µM); MIC (Streptococcus pneumoniae [17]): ≤ 0.03 µg/mL; MIC50 (Streptococcus pneumoniae [17]): ≤ 0.03 µg/mL; MIC90 (Streptococcus pneumoniae [17]): ≤ 0.03 µg/mL; Activity (Streptococcus pneumoniae [18]): 10.2%; Activity (Streptococcus pneumoniae [19]): 98.8%; Activity (Streptococcus pneumoniae [20]): 95.9%; Activity (Streptococcus pneumoniae [21]): 84.8%; MIC (Streptococcus pneumoniae [22]): ≤ 0.03 µg/mL; MIC50 (Streptococcus pneumoniae [22]): ≤ 0.03 µg/mL; MIC90 (Streptococcus pneumoniae [22]): ≤ 0.03 µg/mL; Activity (Streptococcus pneumoniae [23]): 10.5%
